According to PubChem BioAssay (NCI):
Several values for one entry are separate records, joined by “and”; a condition that tells them apart may be missing. Equal entries are not always repeated.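 Grown in 96-well plates, cells were treated for 48 hours with each compound at five concentrations. Insufficient inhibition: endpoint recorded as highest concentration tested. Here, GI50 denotes the concentration required for 50% inhibition of growth. Definition used: TGI = concentration required for complete inhibition of growth.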

How the values were obtained:
Assay in all cases: DTP human tumour cell line panel, 48 h
[1] = test system: A498 renal
[2] = test system: ACHN renal
[3] = test system: BT-549 breast
[4] = test system: COLO 205 colon
[5] = test system: HCC-2998 colon
[6] = test system: IGROV1 ovarian
[7] = test system: NCI/ADR-RES ovarian
[8] = test system: OVCAR-5 ovarian
[9] = test system: PC-3 prostate
[10] = test system: SW-620 colon

In the case of `C#CCN1CCN(C(=S)N/N=C(\C)c2ccccn2)CC1`, the GI50 [1] is reported as 3.31 µM, the TGI [1] is reported as 5.47 µM and 5.21 µM and the GI50 [2] is reported as 0.0578 µM. For the same molecule, the TGI [2] was 4.41 µM and 6.2 µM, the TGI [3] was 3.29 µM and 3.25 µM and the GI50 [4] was 3.62 nM. The TGI [4] was 2.3 µM and 0.915 µM, the TGI [5] was 4.38 µM and the GI50 [6] was 3.03 nM. For the same molecule, the TGI [6] was 3.3 µM, the GI50 [7] was 0.0304 µM and the TGI [7] was 1.68 µM and 1.56 µM. The GI50 [8] was 0.14 µM, the TGI [8] was 4.65 µM and 3.11 µM and the GI50 [9] was 12.1 nM. The TGI [9] was 2.48 µM and 1.45 µM and the TGI [10] was 7.3 µM and 4.27 µM.

`COc1cc(NN=C(c2ccc(O)cc2)c2ccc(O)cc2)c([N+](=O)[O-])cc1[N+](=O)[O-]` was tested, and the GI50 [1] was 13.2 µM, the TGI [1] was 35.2 µM and the GI50 [2] was 5.23 µM. For the same molecule, the TGI [2] was 20.3 µM, the GI50 [3] was 14 µM and the TGI [3] was 30.2 µM. For the same molecule, the GI50 [4] was 11200 nM, the TGI [4] was 23.2 µM and the GI50 [5] was 14800 nM. For the same molecule, the TGI [5] was 29.8 µM, the GI50 [6] was 12700 nM and the TGI [6] was 32.8 µM. The GI50 [7] was 13.1 µM, the TGI [7] was 51.5 µM and the GI50 [8] was 18.8 µM. The TGI [8] was 40.1 µM, the GI50 [9] was 14600 nM and the TGI [9] was > 100 µM. For the same molecule, the GI50 [10] was 15200 nM and the TGI [10] was 33.6 µM.

For `COc1cc(/C=C/C(=O)c2cc(F)c(Cl)cc2Cl)cc(OC)c1OC`, the GI50 [1] was > 100 µM, the TGI [1] was > 100 µM and the GI50 [2] was 60.6 µM. For the same molecule, the TGI [2] was > 100 µM, the GI50 [3] was 53.2 µM and the TGI [3] was > 100 µM. The GI50 [4] was 14700 nM, the TGI [4] was 45.5 µM and the GI50 [5] was 73000 nM. For the same molecule, the TGI [5] was > 100 µM, the GI50 [7] was 23.9 µM and the TGI [7] was 83.8 µM. For the same molecule, the GI50 [8] was 25.2 µM, the TGI [8] was > 100 µM and the GI50 [9] was 12500 nM. The TGI [9] was 85.8 µM, the GI50 [10] was 31900 nM and the TGI [10] was > 100 µM.

For `COc1cc2c3c(n(CCCN)c(=O)c2cc1OC)-c1ccc(F)cc1C3=O`, the GI50 [1] was 14.2 µM, the TGI [1] was 28.5 µM and the GI50 [2] was 0.861 µM. The TGI [2] was 6.14 µM, the GI50 [3] was 3.81 µM and the TGI [3] was 14.4 µM. The GI50 [4] was 1790 nM, the TGI [4] was 5.4 µM and the GI50 [5] was 2670 nM. The TGI [5] was 12.6 µM, the GI50 [6] was 1820 nM and the TGI [6] was 7.68 µM. It also gave a GI50 [7] of 10.6 µM, a TGI [7] of 25.2 µM and a GI50 [8] of 10.4 µM. It also gave a TGI [8] of 22.7 µM, a GI50 [9] of 1410 nM and a TGI [9] of 6.64 µM. It also gave a GI50 [10] of 1170 nM and a TGI [10] of 15.5 µM.

Work on `Nc1nc2ccc([C@@H]3Nc4ccc5[nH]ncc5c4[C@H]4[C@H]5CCC(C5)[C@H]43)cc2s1` yielded a GI50 [1] of 0.288 µM, a TGI [1] of 1.78 µM and a GI50 [2] of 1.37 µM. It also gave a TGI [2] of 9.57 µM, a GI50 [3] of 1.25 µM and a TGI [3] of 5.25 µM. The GI50 [4] was 1080 nM, the TGI [4] was 2.92 µM and the GI50 [5] was 1750 nM. For the same molecule, the TGI [5] was 3.76 µM, the GI50 [6] was 1000 nM and the TGI [6] was 9.84 µM. It also gave a GI50 [7] of 0.966 µM, a TGI [7] of 4 µM and a GI50 [8] of 1.83 µM. The TGI [8] was 4.41 µM, the GI50 [9] was 1040 nM and the TGI [9] was 3.2 µM. It also gave a GI50 [10] of 474 nM and a TGI [10] of 1.87 µM.

In the case of `Nc1nc2c(c3ncccc13)C(c1cccc(Cl)c1)Cc1ncccc1-2` (stereo not given), the GI50 [1] is reported as 1.35 µM, the TGI [1] is reported as 6.24 µM and the GI50 [2] is reported as 5.13 µM. It also gave a TGI [2] of 67.1 µM, a GI50 [3] of 2.28 µM and a TGI [3] of 13.3 µM. The GI50 [4] was 1530 nM, the TGI [4] was 3.94 µM and the GI50 [5] was 2770 nM. The TGI [5] was 15.1 µM, the GI50 [6] was 5360 nM and the TGI [6] was > 100 µM. For the same molecule, the GI50 [7] was 0.959 µM, the TGI [7] was 7.5 µM and the GI50 [8] was 6.42 µM. The TGI [8] was > 100 µM, the GI50 [9] was 2600 nM and the TGI [9] was 17.6 µM. For the same molecule, the GI50 [10] was 880 nM and the TGI [10] was 30.8 µM.
